Entries after “also recorded” stand apart in the source; their conditions may differ.
Legend:
[1] = target: T1, GSPT1 (Homo sapiens, UniProt P15170+Q96SW2); test: Tandem mass tag (TMT) quantitative mass spectrometry of the global proteome in KG-1; format: cell-based; settings: 0.1 μM, 4 hours
T1 construct: endogenous in cells; host or cells: KG-1 (TMT proteomics); KG1, U937 / U937-Cas9, MOLM-13, OCI-AML2 (immunoblots)
Procedure: FIG. 2A illustrates the volcano plot of differentially abundant proteins in response to Compound D treatment relative to the DMSO control. KG1 cells were treated with DMSO or 100 nM Compound D for 4 hours and subjected to TMT proteomics analysis. The X-axis denotes the log 2-fold change of Compound D versus the DMSO control for each protein. P-values were corrected for multiple hypothesis testing using the Benjamini-Hoschberg method to arrive at an adjusted-P-value (adj-P, also known as a false discovery rate). The y-axis denotes the −log 10 (adj-P) values indicating statistical significance such that proteins lying above the dotted red line are statistically significant findings with adjusted P-values<0.05. FIG. 2B illustrates the immunoblot analysis of KG1 and U937 cells treated with DMSO or Compound D for 4 hours. Where indicated, cells were pretreated with Bortezomib or MLN4924 for 30 minutes. […]
(§1) Like all other cereblon modulators, Compound D contains a glutarimide ring (FIG. 1A) that can bind cereblon and redirect it to target neosubstrates for degradation. Thus, the effect of Compound D on the global proteome in AML cell line KG-1 was assessed using tandem mass tag (TMT) quantitative mass spectrometry.

[2] = system: U937 Cas9 cell lines and OCI-AML2 Cas9 cell lines; test: Cell proliferation assay (CTG, 5 days) in sgRNA knockout Cas9 lines; format: cell-based, human
Procedure: Then, a cell proliferation assay was performed. Compound D dissolved in DMSO was injected into 96-well cell culture plates using a HP D300 digital dispenser in triplicate Compound D concentrations. One week after infection to knock-out the indicated genes, each of U937 Cas9 cell lines and OCI-AML2 Cas9 cell lines were plated in triplicate with 5000 cells in 100 μL complete culture media per well in the 96-well plates. After 5 days, cell proliferation was assessed using CTG (CellTiter-Glo) according to the manufacturer's instructions to assess the effects of Compound D on proliferation of each cell line.

[3] = target: T2, GSPT1 (Homo sapiens, UniProt P15170); test: Immunoblot analysis of Compound D-induced GSPT1 degradation in AML cells; format: cell-based
T2 construct: endogenous in cells; host or cells: KG-1 (TMT proteomics); KG1, U937 / U937-Cas9, MOLM-13, OCI-AML2 (immunoblots)
Procedure: (§2) FIG. 2A illustrates the volcano plot of differentially abundant proteins in response to Compound D treatment relative to the DMSO control. KG1 cells were treated with DMSO or 100 nM Compound D for 4 hours and subjected to TMT proteomics analysis. The X-axis denotes the log 2-fold change of Compound D versus the DMSO control for each protein. P-values were corrected for multiple hypothesis testing using the Benjamini-Hoschberg method to arrive at an adjusted-P-value (adj-P, also known as a false discovery rate). The y-axis denotes the −log 10 (adj-P) values indicating statistical significance such that proteins lying above the dotted red line are statistically significant findings with adjusted P-values<0.05. FIG. 2B illustrates the immunoblot analysis of KG1 and U937 cells treated with DMSO or Compound D for 4 hours. Where indicated, cells were pretreated with Bortezomib or MLN4924 for 30 minutes. FIGS. 2C and 2D illustrate the immunoblot analysis (FIG. 2C) and cell proliferation (FIG. 2D) of U937-Cas9 parental cells or cells stably transduced with lentiviral vectors expressing a non-targeting sgRNA (sgNT-1), a sgRNA targeting a non-coding region (sgNC-8), or a sgRNA targeting CRBN(sgCRBN-8). Cells were treated with DMSO or Compound D at indicated concentrations. FIGS. 2E and 2F illustrate the immunoblot analysis (left panel) and cell proliferation (right panel) of MOLM-13 (FIG. 2E) and OCI-AML2 (FIG. 2F) parental and CRBN−/− cells. Cells were treated with DMSO or Compound D at indicated concentrations. Results shown in all figure panels are representative of three biological replicates. Data in FIGS. 2D, 2E (right panel), and 2F (right panel) are shown as mean±SD, n=3 technical replicates.
(§3) FIG. 3A illustrates FLAG-HA tagged cereblon wild-type (FLAG-HA-CRBN) or Y384A/W386A mutant (FLAG-HA-YWAA) produced in 293FT CRBN−/− cells was used to capture V5 tagged GSPT1 (GSPT1-V5) and V5 tagged IKZF1 (IKZF1-V5) transiently expressed in 293FT CRBN−/− cells. […] FIG. 3B illustrates the surface representation of GSPT1 in complex with cereblon, DDB1 and Compound D, with DDB1 shown in purple, cereblon in blue, and GSPT1 in orange. The position of Compound D is shown with a white arrow. FIG. 3C illustrates the Fo-Fc omit electron density (green mesh) for Compound D (yellow sticks) contoured at 3.06. FIG. 3D illustrates GSPT1's interaction with cereblon is mediated by a β-hairpin loop. Hydrogen bond interactions between cereblon and the GPST1 β-hairpin are shown as yellow dashes. FIG. 3E illustrates details of the binding interface between cereblon and GSPT1. Compound D is represented as yellow sticks. Predicted polar interactions between Compound D and cereblon are shown as yellow dashes. FIG. 3F illustrates the immunoblot analysis of U937 parental cells or cells stably expressing HA-GSPT1-G575N. Cells were treated with DMSO or Compound D at the indicated concentrations. FIGS. 3G and 311 illustrate the immunoblot analysis (left panel) and cell proliferation (right panel) of MOLM-13 (FIG. 3G) and OCI-AML2 (FIG. 311) parental cells and cells stably expressing HA tagged GSPT1-G575N. Cells were treated with DMSO or Compound D at indicated concentrations.
as §1
(§4) Specifically, U937 cells stably expressing Cas9 were infected with lentiviral vectors constitutively expressing RFP and non-targeting or non-coding sgRNA (sgNT) controls, or sgRNAs targeting TSC1 or TSC2. Infected cells were selected with 1 μg/ml puromycin. […]

[4] = target: T3, GSPT1 (Homo sapiens, UniProt P15170, G437N); test: as above; format: cell-based; settings: U937, MOLM-13, OCI-AML2 stably expressing HA-GSPT1-G575N
T3 construct: endogenous in cells; host or cells: KG-1 (TMT proteomics); KG1, U937 / U937-Cas9, MOLM-13, OCI-AML2 (immunoblots)
Procedure: as §2, §3, §1, §4

T2 sequence (P15170 1-637 isoform P15170-3): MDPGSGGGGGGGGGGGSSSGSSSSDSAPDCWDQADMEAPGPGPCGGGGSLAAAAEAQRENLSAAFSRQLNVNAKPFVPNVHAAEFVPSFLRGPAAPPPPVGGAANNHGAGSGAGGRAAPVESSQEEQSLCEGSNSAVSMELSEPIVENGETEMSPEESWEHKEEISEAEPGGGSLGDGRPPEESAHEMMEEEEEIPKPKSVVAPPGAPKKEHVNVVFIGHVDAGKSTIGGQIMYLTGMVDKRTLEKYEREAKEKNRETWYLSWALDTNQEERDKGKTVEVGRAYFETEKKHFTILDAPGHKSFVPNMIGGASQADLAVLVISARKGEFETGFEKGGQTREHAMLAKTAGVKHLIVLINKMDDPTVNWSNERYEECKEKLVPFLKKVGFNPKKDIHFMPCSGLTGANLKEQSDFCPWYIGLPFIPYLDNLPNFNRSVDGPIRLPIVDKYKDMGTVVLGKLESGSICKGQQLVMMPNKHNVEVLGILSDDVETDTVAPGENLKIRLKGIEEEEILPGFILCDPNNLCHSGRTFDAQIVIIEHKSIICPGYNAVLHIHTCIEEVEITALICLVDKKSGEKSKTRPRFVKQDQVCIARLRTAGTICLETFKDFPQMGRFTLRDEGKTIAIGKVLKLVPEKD
T2 sequence (Q96SW2 whole entry partner): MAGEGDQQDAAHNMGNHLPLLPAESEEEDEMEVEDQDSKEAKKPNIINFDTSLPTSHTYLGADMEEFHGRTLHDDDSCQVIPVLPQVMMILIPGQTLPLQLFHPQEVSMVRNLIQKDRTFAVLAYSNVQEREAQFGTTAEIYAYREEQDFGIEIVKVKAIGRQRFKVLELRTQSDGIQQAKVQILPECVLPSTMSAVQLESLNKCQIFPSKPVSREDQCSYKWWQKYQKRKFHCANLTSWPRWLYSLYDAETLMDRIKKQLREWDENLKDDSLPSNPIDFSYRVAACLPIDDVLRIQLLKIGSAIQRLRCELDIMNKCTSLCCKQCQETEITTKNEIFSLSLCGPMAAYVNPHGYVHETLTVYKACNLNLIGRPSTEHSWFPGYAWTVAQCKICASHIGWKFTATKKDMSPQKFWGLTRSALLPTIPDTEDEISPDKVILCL
T2 sequence (Q16531 2-1140 partner): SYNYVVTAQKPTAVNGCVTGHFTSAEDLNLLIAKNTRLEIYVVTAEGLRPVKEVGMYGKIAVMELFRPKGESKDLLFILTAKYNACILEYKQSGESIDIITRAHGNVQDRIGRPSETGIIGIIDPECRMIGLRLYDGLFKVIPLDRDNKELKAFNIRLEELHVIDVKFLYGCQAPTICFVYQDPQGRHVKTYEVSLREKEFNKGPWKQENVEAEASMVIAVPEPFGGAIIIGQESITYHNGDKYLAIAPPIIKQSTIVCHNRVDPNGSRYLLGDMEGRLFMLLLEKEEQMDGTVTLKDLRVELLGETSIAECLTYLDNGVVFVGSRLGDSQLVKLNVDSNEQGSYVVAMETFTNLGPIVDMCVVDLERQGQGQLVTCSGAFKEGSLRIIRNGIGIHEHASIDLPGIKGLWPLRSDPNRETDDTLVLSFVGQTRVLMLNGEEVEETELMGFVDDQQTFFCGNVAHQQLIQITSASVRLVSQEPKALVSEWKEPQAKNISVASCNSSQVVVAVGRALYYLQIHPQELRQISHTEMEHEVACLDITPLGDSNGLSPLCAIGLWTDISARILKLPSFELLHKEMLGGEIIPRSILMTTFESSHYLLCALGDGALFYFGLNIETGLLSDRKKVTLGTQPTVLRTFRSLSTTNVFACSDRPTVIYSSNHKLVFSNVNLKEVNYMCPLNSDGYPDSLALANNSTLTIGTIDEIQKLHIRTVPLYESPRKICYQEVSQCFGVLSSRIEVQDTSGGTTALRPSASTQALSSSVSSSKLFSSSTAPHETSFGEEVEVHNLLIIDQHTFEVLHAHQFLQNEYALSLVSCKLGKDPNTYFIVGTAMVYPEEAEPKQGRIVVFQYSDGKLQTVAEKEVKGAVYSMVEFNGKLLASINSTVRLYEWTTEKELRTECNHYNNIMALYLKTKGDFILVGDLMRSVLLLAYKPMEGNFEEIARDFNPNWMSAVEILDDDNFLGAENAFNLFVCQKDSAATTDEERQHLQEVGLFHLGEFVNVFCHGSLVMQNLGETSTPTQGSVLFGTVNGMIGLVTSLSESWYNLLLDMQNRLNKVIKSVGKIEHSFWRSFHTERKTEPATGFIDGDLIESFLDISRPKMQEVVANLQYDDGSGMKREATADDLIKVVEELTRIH
T1 sequence (P15170 1-637 isoform P15170-3): as the sequence (P15170 1-637 isoform P15170-3) above
T1 sequence (Q96SW2 whole entry): as the sequence (Q96SW2 whole entry partner) above
T1 sequence (Q16531 whole entry partner): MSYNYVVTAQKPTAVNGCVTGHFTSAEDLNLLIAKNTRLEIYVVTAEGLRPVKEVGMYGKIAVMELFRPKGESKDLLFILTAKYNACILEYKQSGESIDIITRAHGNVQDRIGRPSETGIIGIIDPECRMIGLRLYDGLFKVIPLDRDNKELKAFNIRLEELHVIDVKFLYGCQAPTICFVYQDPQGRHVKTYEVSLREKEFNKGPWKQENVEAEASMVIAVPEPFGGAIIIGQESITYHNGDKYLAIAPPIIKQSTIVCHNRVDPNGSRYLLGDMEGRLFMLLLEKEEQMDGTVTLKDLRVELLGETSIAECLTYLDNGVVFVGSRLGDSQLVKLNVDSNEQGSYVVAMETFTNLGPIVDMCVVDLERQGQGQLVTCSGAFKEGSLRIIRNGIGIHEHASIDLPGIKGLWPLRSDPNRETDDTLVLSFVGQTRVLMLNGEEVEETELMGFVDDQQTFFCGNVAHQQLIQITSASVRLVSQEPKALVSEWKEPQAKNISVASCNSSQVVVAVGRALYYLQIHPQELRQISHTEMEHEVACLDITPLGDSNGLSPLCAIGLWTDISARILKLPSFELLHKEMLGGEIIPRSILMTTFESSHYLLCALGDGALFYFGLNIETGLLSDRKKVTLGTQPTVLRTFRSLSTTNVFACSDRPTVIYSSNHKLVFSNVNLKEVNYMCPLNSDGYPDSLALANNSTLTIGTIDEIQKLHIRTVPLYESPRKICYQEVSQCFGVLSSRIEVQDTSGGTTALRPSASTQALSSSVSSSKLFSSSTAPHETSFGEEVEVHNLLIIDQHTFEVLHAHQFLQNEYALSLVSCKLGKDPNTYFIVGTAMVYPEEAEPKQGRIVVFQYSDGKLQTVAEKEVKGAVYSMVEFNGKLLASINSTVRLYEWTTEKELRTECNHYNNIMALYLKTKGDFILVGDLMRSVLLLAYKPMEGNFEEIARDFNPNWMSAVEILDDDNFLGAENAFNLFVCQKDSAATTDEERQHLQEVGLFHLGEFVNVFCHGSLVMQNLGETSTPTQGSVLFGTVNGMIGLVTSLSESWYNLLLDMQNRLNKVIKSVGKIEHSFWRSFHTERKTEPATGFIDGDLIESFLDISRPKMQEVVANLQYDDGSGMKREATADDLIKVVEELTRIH
T3 sequence (P15170 1-637 isoform P15170-3 G575N): as the sequence (P15170 1-637 isoform P15170-3) above, with G575N counted along it
T3 sequence (Q96SW2 whole entry partner): as the sequence (Q96SW2 whole entry partner) above
T3 sequence (Q16531 2-1140 partner): as the sequence (Q16531 2-1140 partner) above

O=C1CCC(N2Cc3cc(CNC(=O)C(F)(F)c4ccc(Cl)cc4)ccc3C2=O)C(=O)N1 (stereo not shown) [Compound D, 2-(4-chlorophenyl)-N-((2-(2,6-dioxopiperidin-3-yl)-1-oxoisoindolin-5-yl)methyl)-2,2-difluoroacetamide]
GSPT1 protein abundance [1]: significant reduction of GSPT1 protein abundance | effect on the rest of the proteome [1]: minimal effect on the rest of the proteome | anti-proliferative effects after depletion of TSC1 and TSC2 ([2]; U937): diminished this effect | anti-proliferative effects in control cells ([2]; parental, sgNT-1 and sgNC-8 controls): dose-dependent anti-proliferative effects | downregulation of GSPT1 by Compound D under bortezomib, MLN4924 or knockout of CRBN ([3]; KG1, U937, MOLM-13, OCI-AML2, pretreatment 30 minutes): completely blocked | Compound D induced GSPT1 degradation after ILF2 or ILF3 knockout ([3]; U937, OCI-AML2): drastically reduced cereblon protein levels, and hence Compound D-induced GSPT1 degradation; also recorded: attenuated Compound D induced GSPT1 degradation | GSPT1 expression, cotreatment with cycloheximide ([3]; U937-Cas9 parental): downregulated GSPT1 expression | GSPT1 expression, cotreatment with cycloheximide, TSC1 or TSC2 loss ([3]; U937 TSC1-/- and TSC2-/-): largely abrogated this effect | Compound D induced GSPT1 degradation after TSC1 or TSC2 knockout ([3]; U937 and OCI-AML2): partially blocked GSPT1 degradation induced by Compound D; also recorded: Attenuated Compound D induced GSPT1 degradation | Compound D-induced degradation of GSPT1-G575N [4]: conferred complete resistance to Compound D-induced degradation

Source: patent US20220389515A1, “USE OF BIOMARKERS TO PREDICT CLINICAL SENSITIVITY TO 2-(4-CHLOROPHENYL)-N-((2-(2,6-DIOXOPIPERIDIN-3-YL)-1-OXOISOINDOLIN-5-YL)METHYL)-2,2-DIFLUOROACETAMIDE” (priority 2019, published 2022)
